Experimental data from ChEMBL document CHEMBL1201862, “PubChem BioAssay data set” (2004).
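Briefly, cells in 96-well plates were exposed to five compound concentrations for 48 h, and endpoints were estimated by linear interpolation. The concentration for 50% growth inhibition is given as GI50.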 Activity calls are given as the source filed them. Cut-off read from the data, not from the text of the source: active = GI50 up to about 1.1 µM and inactive = higher.

Columns and labels:
Assay in all cases: NCI-60 cell line screen, 48 h
RXF 393 = test system: RXF 393
SF-268 = test system: SF-268
HCT-15 = test system: HCT-15
NCI-H226 = test system: NCI-H226
SF-295 = test system: SF-295
HT-29 = test system: HT-29
U-251 = test system: U-251
OVCAR-5 = test system: OVCAR-5
SK-OV-3 = test system: SK-OV-3
Malme-3M = test system: Malme-3M
TK-10 = test system: TK-10
CCRF-CEM = test system: CCRF-CEM
HCT-116 = test system: HCT-116
OVCAR-8 = test system: OVCAR-8
A498 = test system: A498
COLO 205 = test system: COLO 205
SK-MEL-28 = test system: SK-MEL-28
RPMI-8226 = test system: RPMI-8226
MCF7 = test system: MCF7

Row | SMILES | GI50 (RXF 393) | GI50 (SF-268) | GI50 (HCT-15) [µM] | GI50 (NCI-H226) | GI50 (SF-295) | GI50 (HT-29) | GI50 (U-251) | GI50 (OVCAR-5) | GI50 (SK-OV-3) | GI50 (Malme-3M) | GI50 (TK-10) | GI50 (CCRF-CEM) | GI50 (HCT-116) | GI50 (OVCAR-8) | GI50 (A498) | GI50 (COLO 205) | GI50 (SK-MEL-28) | GI50 (RPMI-8226) | GI50 (MCF7)
1 | N#Cc1ccccc1/C=N/O | > 100 µM (inactive) | > 100 µM (inactive) | > 41 | > 100 µM (inactive) | > 100 µM (inactive) | > 75.3 µM (inactive) | > 81.1 µM (inactive) | > 100 µM (inactive) | > 100 µM (inactive) | > 100 µM (inactive) | > 100 µM (inactive) | > 50.8 µM (inactive) | > 44.2 µM (inactive) | > 100 µM (inactive) | > 100 µM (inactive) | > 49.7 µM (inactive) | > 100 µM (inactive) | > 42.2 µM (inactive) | 
2 | O=C(NNC(=O)/C(=C/c1cccc([N+](=O)[O-])c1)NC(=O)c1ccccc1)Nc1ccc(Cl)cc1 | 11 µM (inactive) | 15.1 µM (inactive) | 12.2 | 15.1 µM (inactive) | 18.7 µM (inactive) | 14.1 µM (inactive) | 14.2 µM (inactive) | 18.3 µM (inactive) | 15.8 µM (inactive) | 14.2 µM (inactive) | 15.5 µM (inactive) | 6.58 µM (inactive) | 13.4 µM (inactive) | 14.2 µM (inactive) | 10.6 µM (inactive) | 13.4 µM (inactive) | 15.5 µM (inactive) | 9.55 µM (inactive) | 
3 | Cn1c(=O)c(/N=N/c2c(=O)n(C)c(=O)n3c2[nH]c2ccccc23)c2[nH]c3ccccc3n2c1=O | > 100 µM (inactive) | 46.2 µM (inactive) | 48.5 | 36.3 µM (inactive) | 12.4 µM (inactive) | > 100 µM (inactive) | 22.4 µM (inactive) | > 100 µM (inactive) | > 100 µM (inactive) | > 100 µM (inactive) | 50.8 µM (inactive) | 8.63 µM (inactive) | 6.95 µM (inactive) | 57.9 µM (inactive) | 90.4 µM (inactive) | > 100 µM (inactive) | > 100 µM (inactive) | > 100 µM (inactive) | 
4 | C/C(C=O)=N\Nc1cc(C)c2ccccc2n1 | 17.5 µM (inactive) | 16.9 µM (inactive) | 10 | 6.52 µM (inactive) | 15.2 µM (inactive) | 16.7 µM (inactive) | 14 µM (inactive) | 17.2 µM (inactive) | 20.9 µM (inactive) |  | 15.5 µM (inactive) | 12 µM (inactive) | 14.5 µM (inactive) | 17.5 µM (inactive) | 15.2 µM (inactive) | 16.4 µM (inactive) | 16.3 µM (inactive) | 11.9 µM (inactive) | 12.5 µM (inactive)
5 | COC(=O)C1=C(C[S+]([O-])c2ccc([N+](=O)[O-])cc2[N+](=O)[O-])ON(C)C1c1ccccc1 (centres undefined) | > 42.2 µM (inactive) | 33.5 µM (inactive) | 37.8 | 65.2 µM (inactive) | 46.8 µM (inactive) | 20.2 µM (inactive) | 31.3 µM (inactive) | > 95.7 µM (inactive) | > 100 µM (inactive) | > 84.5 µM (inactive) | > 48.9 µM (inactive) | 9.06 µM (inactive) | 34 µM (inactive) | 63.7 µM (inactive) | > 61.8 µM (inactive) | 24.2 µM (inactive) | 24.2 µM (inactive) | 13.4 µM (inactive) | 
6 | Cc1ccc(S(=O)(=O)NC(=O)NCCc2ccccc2)cc1 | 77.6 µM (inactive) | > 100 µM (inactive) |  | > 100 µM (inactive) | > 100 µM (inactive) |  | > 100 µM (inactive) | > 100 µM (inactive) | > 100 µM (inactive) | > 100 µM (inactive) | > 100 µM (inactive) | > 100 µM (inactive) | > 100 µM (inactive) | > 100 µM (inactive) | > 100 µM (inactive) | > 100 µM (inactive) | > 100 µM (inactive) | > 100 µM (inactive) | 
7 | Cc1cc(C)c2c(n1)S(=O)(=O)N(CCCN1CCN(c3cccc(Cl)c3)CC1)C(C(=O)c1ccc(Br)cc1)=C2O | 23.8 µM (inactive) | 24.5 µM (inactive) | 16.7 |  | 18.9 µM (inactive) | 25.4 µM (inactive) | 21.3 µM (inactive) | 36.2 µM (inactive) | 29.5 µM (inactive) | 24.7 µM (inactive) | 17.7 µM (inactive) | 19.9 µM (inactive) | 19.1 µM (inactive) | 23.8 µM (inactive) | 34.9 µM (inactive) | 15.4 µM (inactive) | 28.2 µM (inactive) |  | 25.7 µM (inactive)
8 | C#CCNC(=O)N(CC#C)N=O | > 100 µM (inactive) | > 100 µM (inactive) | > 100 | > 100 µM (inactive) | > 100 µM (inactive) | > 100 µM (inactive) | > 100 µM (inactive) | > 100 µM (inactive) | > 100 µM (inactive) | > 100 µM (inactive) | > 100 µM (inactive) | 37.9 µM (inactive) | > 100 µM (inactive) | > 100 µM (inactive) | > 100 µM (inactive) |  | > 100 µM (inactive) |  | 
9 | COc1ccc2c(c1)-c1c(c3cc(OC)ccc3n1CCN1CCOCC1)CC2 | 27.1 µM (inactive) | 55 µM (inactive) | 14.5 | 14.7 µM (inactive) | 18.9 µM (inactive) | 13.5 µM (inactive) | 29.4 µM (inactive) | 25.4 µM (inactive) | > 100 µM (inactive) | 28.2 µM (inactive) | 32.7 µM (inactive) | 11.5 µM (inactive) | 27.2 µM (inactive) | 28.6 µM (inactive) | 46.7 µM (inactive) | 20 µM (inactive) | 57.1 µM (inactive) | 20.5 µM (inactive) | 29 µM (inactive)
10 | O=C(OCc1ccccc1C1CSCSC1)c1cc(C(=O)OCc2ccccc2C2CSCSC2)c(C(=O)OCc2ccccc2C2CSCSC2)cc1C(=O)OCc1ccccc1C1CSCSC1 | > 100 µM (inactive) | > 100 µM (inactive) | > 100 | > 100 µM (inactive) | > 100 µM (inactive) | > 100 µM (inactive) | > 100 µM (inactive) | > 100 µM (inactive) | > 100 µM (inactive) | > 100 µM (inactive) | > 100 µM (inactive) | > 100 µM (inactive) | > 100 µM (inactive) | > 100 µM (inactive) | > 100 µM (inactive) | > 100 µM (inactive) | > 100 µM (inactive) | > 100 µM (inactive) | 
11 | CCCCCCCCC(=O)N(C)C1C2CN3CCC(O2)C13 (centres undefined) | > 100 µM (inactive) | > 100 µM (inactive) | > 100 | > 100 µM (inactive) | > 100 µM (inactive) | > 100 µM (inactive) | > 100 µM (inactive) | > 100 µM (inactive) | > 100 µM (inactive) | > 100 µM (inactive) | > 100 µM (inactive) | > 100 µM (inactive) | > 100 µM (inactive) |  | > 100 µM (inactive) | > 100 µM (inactive) | > 100 µM (inactive) | > 100 µM (inactive) | 
12 | COc1cc(Br)c(/C=N\c2cccc3ccc(OS(=O)(=O)c4ccc([N+](=O)[O-])cc4)cc23)cc1OC | > 100 µM (inactive) | > 100 µM (inactive) | 10.5 | > 100 µM (inactive) | 5.06 µM (inactive) | > 100 µM (inactive) | > 100 µM (inactive) | > 100 µM (inactive) | > 100 µM (inactive) | > 100 µM (inactive) |  | > 100 µM (inactive) | > 100 µM (inactive) | > 100 µM (inactive) | > 100 µM (inactive) | > 100 µM (inactive) | 28.6 µM (inactive) | > 100 µM (inactive) | 
13 | Cc1csc2nc(-c3cc([N+](=O)[O-])c(Cl)cc3Cl)c(/C=N/N=C(N)N)n12 | 15.9 µM (inactive) | 16.5 µM (inactive) | 21.2 | 18.5 µM (inactive) | 17.8 µM (inactive) | 16.1 µM (inactive) | 16.6 µM (inactive) | 17.4 µM (inactive) |  | 17.8 µM (inactive) | 16.8 µM (inactive) | 27.2 µM (inactive) | 16.7 µM (inactive) | 19.2 µM (inactive) | 19.6 µM (inactive) | 17.9 µM (inactive) | 16.4 µM (inactive) | 16.7 µM (inactive) | 15.3 µM (inactive)
14 | COC1=CC(=O)N(C(=O)C2CSC(C(CO)NC(=O)c3csc(/C=N/O)n3)=N2)C1 (centres undefined) |  | > 100 µM (inactive) | > 100 | 36.6 µM (inactive) | > 100 µM (inactive) | > 100 µM (inactive) |  | > 100 µM (inactive) | > 100 µM (inactive) | 64.4 µM (inactive) | > 100 µM (inactive) | > 100 µM (inactive) | > 100 µM (inactive) | > 100 µM (inactive) | > 100 µM (inactive) | > 100 µM (inactive) | > 100 µM (inactive) | > 100 µM (inactive) | > 100 µM (inactive)
15 | O=C(Nc1cccc(C(F)(F)F)c1)C(=O)C1NC(=S)NC1=O (centres undefined) | > 100 µM (inactive) | > 100 µM (inactive) | 35.3 | > 100 µM (inactive) | > 100 µM (inactive) | 61.9 µM (inactive) |  | > 100 µM (inactive) | > 100 µM (inactive) | > 100 µM (inactive) | > 100 µM (inactive) | 54.5 µM (inactive) | 82.4 µM (inactive) | > 100 µM (inactive) | > 100 µM (inactive) | 39 µM (inactive) | > 100 µM (inactive) | > 100 µM (inactive) | 
16 | CC(=O)Nc1ccc2nc(-c3cccc(Cl)c3)cc(O)c2c1 |  |  |  |  |  | 11.2 µM (inactive) | 3.65 µM (inactive) | 68.4 µM (inactive) | 0.787 µM (active) | 3.18 µM (inactive) | > 100 µM (inactive) | 3.44 µM (inactive) |  | 36.9 µM (inactive) |  | 2.99 µM (inactive) | 39.3 µM (inactive) | 66.1 µM (inactive) | 3.77 µM (inactive)
